Measurements from patent US8461178B2, “Naphthyridine derivatives and the use thereof as kinase inhibitors” (Aeterna Zentaris GmbH, priority 2009, dated 2013).
Where two headings read alike, the source gives them in different places.

How the values were obtained:
cRaf-Mek1-Erk2 = cRaf-Mek1-Erk2 (Homo sapiens, UniProt P04049+P28482+Q02750); settings: read-out: IC50 cRaf-Mek-Erk; at 10 μM ATP
Description: The inhibitory effect of the inventive compounds was tested on various human serine/threonine kinases and tyrosine kinases in enzymatic assays. Recombinant human kinases, for example Aurora-B, cRaf-Mek1-Erk2, Erk2, Pim-1, HIPK1, KDR, TrkA, Yes, c-Abl and others were used, in some cases as full-length kinases, in some cases as truncated fragments—but at least consisting of the functional kinase domains. The commercial kinase proteins (Proqinase, Millipore) were used as recombinant fusion proteins with GST (glutathione S-transferase) tag or His tag. Depending on the substrate type, the different kinase reactions were quantified by suitable ALPHA™ beads (PerkinElmer).
The calculation of % inhibition values per substance concentration was done by means of the following formula from the raw data determined in the Envision reader:
(§1) The controls were determined 16 fold. 0% controls contained no ATP whereas the 100% controls contained no test substance. The IC50 values were determined with GraphPadPrism.

Aurora-B = target: T1, Aurora-B (Homo sapiens, UniProt Q96GD4); experiment: Cell-free kinase assay (ALPHA technology), Aurora-B; assay type: biochemical
T1 construct: in some cases as full-length kinases, in some cases as truncated fragments; purchased Upstate/Millipore #14-835
T1 sequence (Q96GD4 whole entry, the tested form may be a part): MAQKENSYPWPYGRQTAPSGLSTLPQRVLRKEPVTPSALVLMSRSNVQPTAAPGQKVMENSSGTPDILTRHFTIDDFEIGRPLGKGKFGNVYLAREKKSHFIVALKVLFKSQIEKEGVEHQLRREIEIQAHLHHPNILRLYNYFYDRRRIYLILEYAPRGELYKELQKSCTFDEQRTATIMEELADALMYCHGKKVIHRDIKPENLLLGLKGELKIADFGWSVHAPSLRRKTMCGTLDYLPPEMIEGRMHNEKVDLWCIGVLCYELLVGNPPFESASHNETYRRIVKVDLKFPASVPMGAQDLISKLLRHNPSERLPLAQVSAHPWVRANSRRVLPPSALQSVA
Description: The kinase reaction was stopped by adding 10 μl of the ALPHA bead mix (10 μg/ml, #6760617/PerkinElmer), pre-incubated with anti-phospho PLK antibody (100 pM, #5070, Cell Signaling), in 25 mM Tris, 200 mM NaCl, 100 mM EDTA and 0.3% BSA, and left to stand overnight. The luminiscence was detected the next morning in a Envision instrument (Perkin Elmer). […] 0% controls contained no ATP whereas the 100% controls contained no test substance. The IC50 values were determined with GraphPadPrism.

Erk2 = target: T2, Erk2 (Homo sapiens, UniProt P28482); experiment: Cell-free kinase assay (ALPHA technology), Erk2; assay type: biochemical; settings: for IC50: at 10 μM ATP; for dual activity against Aurora-B and Erk2 (or cRaf-Mek-Erk cascade respectively): in words
T2 construct: in some cases as full-length kinases, in some cases as truncated fragments
T2 sequence (P28482 whole entry, the tested form may be a part): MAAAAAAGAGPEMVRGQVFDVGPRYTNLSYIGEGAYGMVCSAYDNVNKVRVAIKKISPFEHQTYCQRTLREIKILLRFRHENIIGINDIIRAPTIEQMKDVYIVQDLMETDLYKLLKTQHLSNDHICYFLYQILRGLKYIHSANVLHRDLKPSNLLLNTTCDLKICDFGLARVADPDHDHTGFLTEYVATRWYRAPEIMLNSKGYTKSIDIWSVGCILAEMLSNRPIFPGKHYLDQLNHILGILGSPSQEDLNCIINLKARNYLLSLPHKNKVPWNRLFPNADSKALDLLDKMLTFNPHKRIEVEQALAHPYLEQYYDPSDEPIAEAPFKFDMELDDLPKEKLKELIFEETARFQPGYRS
Description: as §1

[1] = at 10 μM ATP, read-out: IC50 Aurora-B
[2] = read-out: IC50 values against Aurora-B

Sequence of cRaf-Mek1-Erk2 (P04049 whole entry, the tested form may be a part): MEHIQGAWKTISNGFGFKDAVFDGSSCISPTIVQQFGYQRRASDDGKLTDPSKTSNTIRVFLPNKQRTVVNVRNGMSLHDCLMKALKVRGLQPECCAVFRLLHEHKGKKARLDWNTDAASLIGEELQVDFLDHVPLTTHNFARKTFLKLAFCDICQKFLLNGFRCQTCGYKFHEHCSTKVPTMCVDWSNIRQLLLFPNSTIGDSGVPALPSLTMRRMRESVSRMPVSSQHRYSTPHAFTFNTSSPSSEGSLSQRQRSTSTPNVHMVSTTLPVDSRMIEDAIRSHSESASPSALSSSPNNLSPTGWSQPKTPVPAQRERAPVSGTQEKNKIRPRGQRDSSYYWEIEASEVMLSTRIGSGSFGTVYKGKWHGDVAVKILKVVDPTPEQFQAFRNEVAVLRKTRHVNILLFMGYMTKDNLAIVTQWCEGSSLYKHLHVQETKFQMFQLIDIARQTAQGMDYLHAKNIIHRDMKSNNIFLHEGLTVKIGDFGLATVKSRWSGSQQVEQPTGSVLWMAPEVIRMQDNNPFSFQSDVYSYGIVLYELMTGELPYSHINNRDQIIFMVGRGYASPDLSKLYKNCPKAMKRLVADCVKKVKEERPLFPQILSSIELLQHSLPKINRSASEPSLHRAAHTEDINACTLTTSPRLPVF
Sequence of cRaf-Mek1-Erk2 (Q02750 whole entry, the tested form may be a part): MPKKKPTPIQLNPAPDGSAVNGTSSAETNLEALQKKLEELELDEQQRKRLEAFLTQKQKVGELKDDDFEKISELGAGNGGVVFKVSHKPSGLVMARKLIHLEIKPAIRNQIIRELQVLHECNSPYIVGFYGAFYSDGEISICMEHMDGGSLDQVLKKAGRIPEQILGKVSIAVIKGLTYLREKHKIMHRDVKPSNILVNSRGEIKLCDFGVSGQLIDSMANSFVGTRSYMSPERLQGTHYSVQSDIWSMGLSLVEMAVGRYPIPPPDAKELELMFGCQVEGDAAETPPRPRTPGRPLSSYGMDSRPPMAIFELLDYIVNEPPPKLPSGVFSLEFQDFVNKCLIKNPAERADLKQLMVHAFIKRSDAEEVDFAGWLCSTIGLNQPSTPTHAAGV
Sequence of cRaf-Mek1-Erk2 (P28482 2-360): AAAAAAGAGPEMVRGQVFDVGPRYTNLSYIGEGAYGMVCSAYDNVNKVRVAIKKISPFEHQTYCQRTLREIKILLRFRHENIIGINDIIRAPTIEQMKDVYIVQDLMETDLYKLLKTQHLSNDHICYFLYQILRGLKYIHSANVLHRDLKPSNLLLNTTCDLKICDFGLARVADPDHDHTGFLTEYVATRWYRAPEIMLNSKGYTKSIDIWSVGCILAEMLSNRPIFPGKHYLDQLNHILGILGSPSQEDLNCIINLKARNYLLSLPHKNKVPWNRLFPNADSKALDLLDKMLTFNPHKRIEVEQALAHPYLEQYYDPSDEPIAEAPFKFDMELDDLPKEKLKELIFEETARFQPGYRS

Compound | IC50 (cRaf-Mek1-Erk2) | IC50 (Aurora-B; [1]) | IC50 (Erk2) | dual activity against Aurora-B and Erk2 (or cRaf-Mek-Erk cascade respectively) (Erk2) | melting point | IC50 (Aurora-B; [2])
Cn1cc(-c2cnc3c(NC(=O)NC4CCCCC4)ccnc3c2)cn1 [Compound 22, 1-Cyclohexyl-3-[7-(1-methyl-1H-pyrazol-4-yl)-[1,5]naphthyridin-4-yl]-urea] | > 31.6 µM | 0.354 µM | > 100 µM | – | 200 to 201 °C | –
O=C(Nc1ccnc2cc(-c3cn[nH]c3)cnc12)NC1CC1 [Compound 35, 1-Cyclopropyl-3-[7-(1H-pyrazol-4-yl)-[1,5]naphthyridin-4-yl]-urea] | 4.65 µM | 0.085 µM | > 100 µM | – | 229 to 231 °C | –
Cn1cc(-c2cnc3ccc(NC(=O)NCc4ccccc4)nc3c2)cn1 [Compound 28, 1-Benzyl-3-[7-(1-methyl-1H-pyrazol-4-yl)-[1,5]naphthyridin-2-yl]-urea] | – | 0.579 µM | – | dual activity | 257 to 258 °C | –
CCNC(=O)Nc1ccnc2cc(-c3ccc(O)c(OC)c3)cnc12 [Compound 9, 1-Ethyl-3-[7-(4-hydroxy-3-methoxy-phenyl)-[1,5]naphthyridin-4-yl]-urea] | > 31.6 µM | 0.37 µM | ~100 µM | – | 202 to 203 °C | –
Cn1cc(-c2cnc3c(NC(=O)NC4CCC4)ccnc3c2)cn1 [Compound 17, 1-Cyclobutyl-3-[7-(1-methyl-1H-pyrazol-4-yl)-[1,5]naphthyridin-4-yl]-urea] | 2.17 µM | 0.048 µM | > 100 µM | – | 215 to 216 °C | < 0.1 µM
CCNC(=S)Nc1ccc2ncc(Nc3cc(OC)c(OC)c(OC)c3)cc2n1 [Compound 6, 1-Ethyl-3-[7-(3,4,5-trimethoxy-phenylamino)-[1,5]naphthyridin-2-yl]-thiourea] | – | – | – | – | 237 to 238 °C | –
CCNC(=O)Nc1ccnc2cc(-c3cc(C)c(O)c(C)c3)cnc12 [Compound 16, 1-Ethyl-3-[7-(4-hydroxy-3,5-dimethyl-phenyl)-[1,5]naphthyridin-4-yl]-urea] | > 31.6 µM | 3.85 µM | > 31.6 µM | – | 213 to 214 °C | –
Cn1cc(-c2cnc3c(NC(=O)NC4CCCC4)ccnc3c2)cn1 [Compound 34, 1-Cyclopentyl-3-[7-(1-methyl-1H-pyrazol-4-yl)-[1,5]naphthyridin-4-yl]-urea] | 0.676 µM | 0.108 µM | 4.08 µM | – | 207 to 208 °C | –
CCNC(=O)Nc1ccnc2cc(-c3ccc(OC)c(OC)c3)cnc12 [Compound 7, 1-[7-(3,4-Dimethoxy-phenyl)-[1,5]naphthyridin-4-yl]-3-ethyl-urea] | ~100 µM | 0.136 µM | > 100 µM | – | 215 to 216 °C | –
COc1ccc(-c2cnc3c(NC(=O)NC(C)(C)C)ccnc3c2)cc1OC [Compound 8, 1-tert-Butyl-3-[7-(3,4-dimethoxy-phenyl)-[1,5]naphthyridin-4-yl]-urea] | ~100 µM | 0.714 µM | > 100 µM | – | 215 to 216 °C | –
CCNC(=O)Nc1ccc2ncc(-c3ccc(OC)c(OC)c3)cc2n1 [Compound 2, 1-[7-(3,4-Dimethoxy-phenyl)-[1,5]naphthyridin-2-yl]-3-ethyl-urea] | – | 0.624 µM | – | dual activity | 218 to 219 °C | –
COc1cc(-c2cnc3ccc(NC(=O)NC(C)(C)C)nc3c2)ccc1O [Compound 4, 1-tert-Butyl-3-[7-(4-hydroxy-3-methoxy-phenyl)-[1,5]naphthyridin-2-yl]-urea] | – | 0.227 µM | – | dual activity | 286 to 287 °C | –

More lines, now with the values ahead:

IC50 (cRaf-Mek1-Erk2) | IC50 (Aurora-B; [1]) | IC50 (Erk2) | dual activity against Aurora-B and Erk2 (or cRaf-Mek-Erk cascade respectively) (Erk2) | melting point | IC50 (Aurora-B; [2]) | Compound
0.096 µM | 0.26 µM | 0.429 µM | dual activity | – | – | Cn1cc(-c2cnc3ccc(NC(=O)NC(C)(C)C)nc3c2)cn1 [Compound 26, 1-tert-Butyl-3-[7-(1-methyl-1H-pyrazol-4-yl)-[1,5]naphthyridin-2-yl]-urea]
0.157 µM | 1.14 µM | 0.191 µM | dual activity | – | – | Cn1cc(-c2cnc3ccc(NC(=O)Nc4ccccc4)nc3c2)cn1 [Compound 27, 1-[7-(1-Methyl-1H-pyrazol-4-yl)-[1,5]naphthyridin-2-yl]-3-phenyl-urea]
26.2 µM | 0.784 µM | > 100 µM | – | 229 to 230 °C | – | Cn1cc(-c2cnc3c(NC(=O)NC4CC(F)(F)C4)ccnc3c2)cn1 [Compound 24, 1-(3,3-Difluoro-cyclobutyl)-3-[7-(1-methyl-1H-pyrazol-4-yl)-[1,5]naphthyridin-4-yl]-urea]
9.74 µM | 0.026 µM | > 100 µM | – | 216 to 217 °C | < 0.1 µM | CCCNC(=O)Nc1ccnc2cc(-c3cnn(C)c3)cnc12 [Compound 19, 1-[7-(1-Methyl-1H-pyrazol-4-yl)-[1,5]naphthyridin-4-yl]-3-propyl-urea]
> 31.6 µM | 1.58 µM | > 100 µM | – | 158 to 159 °C | – | COc1cc(-c2cnc3c(NC(=O)NC(C)(C)C)ccnc3c2)ccc1O [Compound 12, 1-tert-Butyl-3-[7-(4-hydroxy-3-methoxy-phenyl)-[1,5]naphthyridin-4-yl]-urea]
2.81 µM | 0.028 µM | > 100 µM | – | 127 to 129 °C | < 0.1 µM | O=C(Nc1ccnc2cc(-c3cnn(CCN4CCOCC4)c3)cnc12)NC1CC1 [Compound 38, 1-Cyclopropyl-3-{7-[1-(2-morpholin-4-yl-ethyl)-1H-pyrazol-4-yl]-[1,5]naphthyridin-4-yl}-urea]
16.9 µM | 0.141 µM | > 31.6 µM | – | 185 to 186 °C | – | Cn1cc(-c2cnc3c(NC(=O)NCCCCc4ccccc4)ccnc3c2)cn1 [Compound 21, 1-[7-(1-Methyl-1H-pyrazol-4-yl)-[1,5]naphthyridin-4-yl]-3-(4-phenyl-butyl)-urea]
12.8 µM | 0.164 µM | > 31.6 µM | – | 219 to 220 °C | – | CCCCNC(=O)Nc1ccnc2cc(-c3cnn(C)c3)cnc12 [Compound 32, 1-Butyl-3-[7-(1-methyl-1H-pyrazol-4-yl)-[1,5]naphthyridin-4-yl]-urea]
– | 2.23 µM | – | dual activity | 264 to 265 °C | – | CCNC(=O)Nc1ccc2ncc(-c3ccc(OC)cc3)cc2n1 [Compound 1, 1-Ethyl-3-[7-(4-methoxy-phenyl)-[1,5]naphthyridin-2-yl]urea]
27.3 µM | 0.129 µM | > 100 µM | – | > 300 °C | – | Cn1cc(-c2cnc3c(NC(=O)NCC(F)(F)F)ccnc3c2)cn1 [Compound 20, 1-[7-(1-Methyl-1H-pyrazol-4-yl)-[1,5]naphthyridin-4-yl]-3-(2,2,2-trifluoro-ethyl)-urea]
7.45 µM | 0.013 µM | > 100 µM | – | 223 to 224 °C | < 0.1 µM | Cn1cc(-c2cnc3c(NC(=O)NC4CC4)ccnc3c2)cn1 [Compound 18, 1-Cyclopropyl-3-[7-(1-methyl-1H-pyrazol-4-yl)-[1,5]naphthyridin-4-yl]-urea]
0.008 µM | 0.171 µM | 0.733 µM | dual activity | 237 to 238 °C | – | Cn1cc(-c2cnc3ccc(NC(=O)NCCc4ccccc4)nc3c2)cn1 [Compound 5, 1-[7-(1-Methyl-1H-pyrazol-4-yl)-[1,5]naphthyridin-2-yl]-3-phenethyl-urea]
18.1 µM | 0.108 µM | > 100 µM | – | 235 to 236 °C | – | COc1cc(-c2cnc3c(NC(=O)NC4CC4)ccnc3c2)ccc1O [Compound 14, 1-Cyclopropyl-3-[7-(4-hydroxy-3-methoxy-phenyl)-[1,5]naphthyridin-4-yl]-urea]
> 100 µM | 2.12 µM | > 100 µM | – | 214 to 215 °C | – | O=C(Nc1ccnc2cc(-c3ccc4[nH]ccc4c3)cnc12)NC1CC1 [Compound 40, 1-Cyclopropyl-3-[7-(1H-indol-5-yl)-[1,5]naphthyridin-4-yl]-urea]
2.17 µM | 0.137 µM | > 100 µM | – | – | – | CC(C)NC(=O)Nc1ccnc2cc(-c3cnn(C)c3)cnc12 [Compound 30, 1-Isopropyl-3-[7-(1-methyl-1H-pyrazol-4-yl)-[1,5]naphthyridin-4-yl]-urea]
